This test deals with T1, mGlyT-1b (Mus musculus, UniProt P28571).
T1 construct: host or cells: Flp-in-CHO
T1 sequence (P28571 1-651 isoform P28571-2): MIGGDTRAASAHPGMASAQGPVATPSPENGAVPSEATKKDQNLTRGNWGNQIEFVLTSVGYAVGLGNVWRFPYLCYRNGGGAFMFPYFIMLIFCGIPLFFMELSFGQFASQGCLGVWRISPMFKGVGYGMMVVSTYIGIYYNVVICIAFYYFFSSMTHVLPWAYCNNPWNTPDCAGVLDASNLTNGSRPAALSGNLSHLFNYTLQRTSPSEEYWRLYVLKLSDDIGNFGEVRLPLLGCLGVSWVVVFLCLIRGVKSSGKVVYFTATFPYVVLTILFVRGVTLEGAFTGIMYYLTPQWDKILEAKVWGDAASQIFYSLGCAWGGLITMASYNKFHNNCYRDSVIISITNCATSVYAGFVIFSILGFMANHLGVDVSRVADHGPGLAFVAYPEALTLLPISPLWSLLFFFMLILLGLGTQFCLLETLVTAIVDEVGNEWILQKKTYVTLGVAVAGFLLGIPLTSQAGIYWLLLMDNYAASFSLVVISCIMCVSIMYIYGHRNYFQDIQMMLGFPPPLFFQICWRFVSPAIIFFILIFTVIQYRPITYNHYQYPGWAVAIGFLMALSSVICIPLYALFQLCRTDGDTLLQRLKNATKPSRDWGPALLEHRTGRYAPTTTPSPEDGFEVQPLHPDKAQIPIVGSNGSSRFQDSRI
Briefly: Glycine uptake inhibition assay (mGlyT-1b). In kind it is cell-based. The note with it: inhibition of [3H]-glycine uptake in Flp-in-CHO cells transfected with mGlyT-1b cDNA; 20 min preincubation at 22° C.; read-out: IC50 (μM) at GlyT-1. Here is the method: DMEM complete medium: Nutrient mixture F-12 (Gibco Life-technologies), fetal bovine serum (FBS) 5%, (Gibco life technologies), Penicillin/Streptomycin1% (Gibco life technologies), Hygromycin 0.6 mg/ml (Gibco life technologies), Glutamine 1 mM Gibco life technologies)
Uptake buffer (UB): 150 mM NaCl, 10 mM Hepes-Tris, pH 7.4, 1 mM CaCl2, 2.5 mM KCl, 2.5 mM MgSO4, 10 mM (+) D-glucose.
Flp-in™-CHO (Invitrogen Cat n^o R758-07) cells stably transfected with mGlyT1b cDNA.
Glycine Uptake Inhibition Assay (mGlyT-1b)
On day 1 mammalian cells, (Flp-in™-CHO), transfected with mGlyT-1b cDNA, were plated at the density of 40,000 cells/well in complete F-12 medium, without hygromycin in 96-well culture plates. On day 2, the medium was aspirated, and the cells were washed twice with uptake buffer (UB). The cells were then incubated for 20 min at 22° C. with either (i) no potential competitor, (ii) 10 mM non-radioactive glycine, (iii) a concentration of a potential inhibitor. A range of concentrations of the potential inhibitor was used to generate data for calculating the concentration of inhibitor resulting in 50% of the effect (e.g. IC50, the concentration of the competitor inhibiting glycine uptake of 50%). A solution was then immediately added containing [^3H]-glycine 60 nM (11-16 Ci/mmol) and 25 μM non-radioactive glycine. The plates were incubated with gentle shaking, and the reaction was stopped by aspiration of the mixture and washing (three times) with ice-cold UB. The cells were lysed with scintillation liquid, shaken 3 hours, and the radioactivity in the cells was counted using a scintillation counter.

The structures appear in SMILES notation.

For `CS(=O)(=O)c1ccc(OCC2CCC2)c(C(=O)N2Cc3cnc(C(F)(F)F)cc3C2)c1` [Example 118, (2-Cyclobutyl-methoxy-5-methane-sulfonyl-phenyl)-(6-trifluoromethyl-1,3-dihydro-pyrrolo [3,4-c]pyridin-2-yl)-methanone], the IC50 (as a rule, the concentration needed to halve the response being measured) was determined as 0.038 µM. To `C[C@H](Oc1ccc(S(C)(=O)=O)cc1C(=O)N1Cc2ccc(N3CCCC(F)(F)C3)cc2C1)C(F)(F)F` [Example 287, [5-(3,3-Difluoro-piperidin-1-yl)-1,3-dihydro-isoindol-2-yl]-[5-methanesulfonyl-2-((S)-2,2,2-trifluoro-1-methyl-ethoxy)-phenyl]-methanone] belongs 0.043 µM; to `CS(=O)(=O)c1ccc(OCC(F)(F)C(F)F)c(C(=O)N2Cc3cnc(C(F)(F)F)cc3C2)c1` [Example 156, [5-Methanesulfonyl-2-(2,2,3,3-tetrafluoro-propoxy)-phenyl]-(6-trifluoromethyl-1,3-dihydro-pyrrolo[3,4-c]pyridin-2-yl)-methanone], 0.047 µM.

For `C[C@H](Oc1ccc(S(C)(=O)=O)cc1C(=O)N1Cc2ccc(-c3nccs3)cc2C1)C(F)(F)F` [Example 172, [5-Methanesulfonyl-2-((S)-2,2,2-trifluoro-1-methyl-ethoxy)-phenyl]-(5-thiazol-2-yl-1,3-dihydro-isoindol-2-yl)-methanone], the IC50 turned out to be 0.03 µM. For the molecule `CS(=O)(=O)c1ccc(OCC(F)(F)C(F)(F)F)c(C(=O)N2Cc3cc(Cl)c(N4C5CCC4COC5)cc3C2)c1` [Example 363, [5-Chloro-6-(3-oxa-8-aza-bicyclo[3.2.1]oct-8-yl)-1,3-dihydro-isoindol-2-yl]-[5-methanesulfonyl-2-(2,2,3,3,3-pentafluoro-propoxy)-phenyl]-methanone], the IC50 was 0.004 µM.

In the case of `C[C@H](Oc1ccc(S(C)(=O)=O)cc1C(=O)N1Cc2ccc(-c3cc(F)cc(F)c3)cc2C1)C(F)(F)F` [Example 337], the IC50 came out at 0.022 µM.

Turning to `CS(=O)(=O)c1ccc(OCC2CCC2)c(C(=O)N2Cc3cc(C(F)(F)F)cnc3C2)c1` [Example 124, (2-Cyclobutyl-methoxy-5-methane-sulfonyl-phenyl)-(3-trifluoromethyl-5,7-dihydro-pyrrolo[3,4-b]pyridin-6-yl)-methanone], the IC50 stood at 0.03 µM.

Take `C[C@H](Oc1ccc(S(C)(=O)=O)cc1C(=O)N1Cc2cc(F)c(C3CCOCC3)cc2C1)C(F)(F)F` [Example 366, [5-Fluoro-6-(tetrahydro-pyran-4-yl)-1,3-dihydro-isoindol-2-yl]-[5-methanesulfonyl-2-((S)-2,2,2-trifluoro-1-methyl-ethoxy)-phenyl]-methanone]: the IC50 worked out at 0.002 µM. Take `C[C@H](Oc1ccc(S(C)(=O)=O)cc1C(=O)N1Cc2cc(Cl)c(OC3CCOCC3)cc2C1)C(F)(F)F` [Example 375, [5-Chloro-6-(tetrahydro-pyran-4-yloxy)-1,3-dihydro-isoindol-2-yl]-[5-methanesulfonyl-2-((S)-2,2,2-trifluoro-1-methyl-ethoxy)-phenyl]-methanone]: the IC50 was 0.015 µM. For the molecule `CS(=O)(=O)c1ccc(-c2ccc(F)cc2)c(C(=O)N2Cc3cnc(C(F)(F)F)cc3C2)c1` [Example 121, (4′-Fluoro-4-methanesulfonyl-biphenyl-2-yl)-(6-trifluoromethyl-1,3-dihydro-pyrrolo[3,4-c]pyridin-2-yl)-methanone], the IC50 amounted to 0.047 µM. As to `CC(C)Oc1ccc(S(C)(=O)=O)cc1C(=O)N1Cc2ccc(C3CCOC3)cc2C1` (racemic) [Example 360, rac-(2-Isopropoxy-5-methanesulfonyl-phenyl)-[5-(tetrahydro-furan-3-yl)-1,3-dihydro-isoindol-2-yl]-methanone], the IC50 was found to be 0.022 µM. Take `COc1cccc(-c2ccc3c(c2)CN(C(=O)c2cc(S(C)(=O)=O)ccc2O[C@@H](C)C(F)(F)F)C3)c1` [Example 340, [5-Methanesulfonyl-2-(2,2,2-trifluoro-1-methyl-ethoxy)-phenyl]-[5-(3-methoxy-phenyl)-1,3-dihydro-isoindol-2-yl]-methanone]: the IC50 amounted to 0.025 µM. Take `CS(=O)(=O)c1ccc(-c2ccc(F)c(F)c2)c(C(=O)N2Cc3cnc(C(F)(F)F)cc3C2)c1` [Example 146, (3′,4′-Difluoro-4-methanesulfonyl-biphenyl-2-yl)-(6-trifluoromethyl-1,3-dihydro-pyrrolo[3,4-c]pyridin-2-yl)-methanone]: the IC50 amounted to 0.047 µM.

For `Cc1csc(-c2ccc3c(c2)CN(C(=O)c2cc(S(C)(=O)=O)ccc2O[C@@H](C)C(F)(F)F)C3)n1` [Example 168, [5-Methanesulfonyl-2-((S)-2,2,2-trifluoro-1-methyl-ethoxy)-phenyl]-[5-(4-methyl-thiazol-2-yl)-1,3-dihydro-isoindol-2-yl]-methanone], the IC50 turned out to be 0.033 µM. The same measure for `Cc1cc2c(cc1C(F)(F)F)CN(C(=O)c1cc(S(C)(=O)=O)ccc1O[C@@H](C)C(F)(F)F)C2` [Example 99, [5-Methanesulfonyl-2-((S)-2,2,2-trifluoro-1-methyl-ethoxy)-phenyl]-(5-methyl-6-trifluoromethyl-1,3-dihydro-isoindol-2-yl)-methanone]: 0.042 µM; for `CC(C)Oc1ccc(S(C)(=O)=O)cc1C(=O)N1Cc2ccc(C3CCOCC3)cc2C1` [Example 268, (2-Isopropoxy-5-methanesulfonyl-phenyl)-[5-(tetrahydro-pyran-4-yl)-1,3-dihydro-isoindol-2-yl]-methanone]: 0.028 µM. For `C[C@H](Oc1ccc(S(C)(=O)=O)cc1C(=O)N1Cc2ccc(-c3cccs3)cc2C1)C(F)(F)F` [Example 344], the half-maximal inhibitory concentration (IC50) was found to be 0.02 µM. Consider `CC(C)Oc1ccc(S(C)(=O)=O)cc1C(=O)N1Cc2ccc(OC3CCOCC3)cc2C1` [Example 373, (2-Isopropoxy-5-methanesulfonyl-phenyl)-[5-(tetrahydro-pyran-4-yloxy)-1,3-dihydro-isoindol-2-yl]-methanone], for which the IC50 worked out at 0.015 µM.

Regarding `Cc1ccsc1-c1ccc2c(c1)CN(C(=O)c1cc(S(C)(=O)=O)ccc1O[C@@H](C)C(F)(F)F)C2` [Example 332, [5-Methanesulfonyl-2-(2,2,2-trifluoro-1-methyl-ethoxy)-phenyl]-[5-(3-methyl-thiophen-2-yl)-1,3-dihydro-isoindol-2-yl]-methanone], the IC50 turned out to be 0.041 µM.

Regarding `C[C@H](Oc1ccc(S(C)(=O)=O)cc1C(=O)N1Cc2ccc(N3[C@@H]4CC[C@H]3COC4)cc2C1)C(F)(F)F` [Example 295, [5-Methanesulfonyl-2-((S)-2,2,2-trifluoro-1-methyl-ethoxy)-phenyl]-[(1R,5S)-5-(3-oxa-8-aza-bicyclo[3.2.1]oct-8-yl)-1,3-dihydro-isoindol-2-yl]-methanone], the IC50 came to 0.04 µM.

With `Cc1cc2c(cc1C1CCOCC1)CN(C(=O)c1cc(S(C)(=O)=O)ccc1O[C@@H](C)C(F)(F)F)C2` [Example 300], the IC50 came to 0.017 µM. In the case of `C[C@H](Oc1ccc(S(C)(=O)=O)cc1C(=O)N1Cc2ccc(-c3ccc(F)cc3)cc2C1)C(F)(F)F` [Example 333, [5-(4-Fluoro-phenyl)-1,3-dihydro-isoindol-2-yl]-[5-methanesulfonyl-2-(2,2,2-trifluoro-1-methyl-ethoxy)-phenyl]-methanone], the IC50 was determined as 0.047 µM.

In the case of `C[C@H](Oc1ccc(S(C)(=O)=O)cc1C(=O)N1Cc2cc(-c3ccc(F)cc3)cnc2C1)C(F)(F)F` [Example 322, [3-(4-Fluoro-phenyl)-5,7-dihydro-pyrrolo[3,4-b]pyridin-6-yl]-[5-methanesulfonyl-2-((S)-2,2,2-trifluoro-1-methyl-ethoxy)-phenyl]-methanone], the IC50 came out at 0.012 µM.

Turning to `CS(=O)(=O)c1ccc(OCC2CCC2)c(C(=O)N2Cc3ccc(C4CCOCC4)cc3C2)c1` [Example 272, (2-Cyclobutyl-methoxy-5-methane-sulfonyl-phenyl)-[5-(tetrahydro-pyran-4-yl)-1,3-dihydro-isoindol-2-yl]-methanone], the IC50 was found to be 0.034 µM.
